Converted amounts (≈) assume the structure as drawn. Like-named read-outs stand apart in the source and are kept apart here.
Tests used:
Format in all cases: cell-based
[1] = test system: Staphylococcus aureus 100 (ATCC 29213); experiment: MIC, broth microdilution, SA 100; conditions: Staphylococcus aureus, ATCC29213, class symbols, read-out: MIC SA 100
Procedure: (§1) Antibacterial activity in vitro is investigated by broth microdilution method in Meuller-Hinton broth as recommended by NCCLS. All strains tested are clinical isolates either sensitive or resistant to natural glycopeptides. MIC values were determined using the CLSI-recommended broth microdilution procedure (Clinical and Laboratory Standards Institute, Methods for Dilution Antimicrobial Susceptibility Tests for Bacteria That Grow Aerobically; Approved Standard-Seventh Edition.). Automated liquid handlers (Multidrop 384, Labsystems, Helsinki, Finland; Biomek 2000 and Multimek 96, Beckman Coulter, Fullerton Calif.) were used to conduct serial dilutions and liquid transfers. The MIC value for vancomycin is given for comparison. The abbreviations for organisms tested are as follow: SA 100—Staphylococcus aureus 100 (ATCC 29213); SA 757—Staphylococcus aureus 757 (MRSA); SA 2012—Staphylococcus aureus 2012 (VISA); SE 835—Staphylococcus epidermidis 835; SE 831—Staphylococcus epidermidis 831 (MRSE); EFc 101—Enterococcus faecalis 101 (ATCC 29212); EFc 848—Enterococcus faecalis 848 (VRE, Van A); EFcm 800—Enterococcus faecium 800; EFcm 752—Enterococcus faecium 752 (VRE, Van A); SPNE 1195—Streptococcus pneumoniae 1195 (ATCC 49619); SPY 712—Streptococcus pyogenes 712.

[2] = test system: Staphylococcus aureus 2012 (VISA); experiment: MIC, broth microdilution, SA 2012; conditions: read-out: MIC SA 2012
Procedure: as §1

Enterococcus faecium 800 = experiment: MIC, broth microdilution, EFcm 800; conditions: Enterococcus faecium, 800, class symbols, read-out: MIC E FCM 800
Procedure: as §1

[3] = test system: Staphylococcus aureus 757 (MRSA); experiment: MIC, broth microdilution, SA 757; conditions: read-out: MIC SA 757
Procedure: as §1

[4] = test system: Enterococcus faecalis 101 (ATCC 29212); experiment: MIC, broth microdilution, EFc 101; conditions: Enterococcus faecalis, ATCC29212, class symbols, read-out: MIC E FC 101
Procedure: as §1

[5] = test system: Staphylococcus epidermidis 831 (MRSE); experiment: MIC, broth microdilution, SE 831; conditions: Staphylococcus epidermidis, read-out: MIC SE 831
Procedure: as §1

[6] = test system: Enterococcus faecalis 848 (VRE, Van A); experiment: MIC, broth microdilution, EFc 848; conditions: VRE, Van A, class symbols, read-out: MIC E FC 848
Procedure: as §1

[7] = test system: Staphylococcus epidermidis 835; experiment: MIC, broth microdilution, SE 835; conditions: Staphylococcus epidermidis, 835, class symbols, read-out: MIC SE 835
Procedure: as §1

[8] = test system: Streptococcus pneumoniae 1195 (ATCC 49619); experiment: MIC, broth microdilution, SPNE 1195; conditions: Streptococcus pneumoniae, ATCC49619, class symbols, read-out: MIC S PNE 1195
Procedure: as §1

[9] = test system: Streptococcus pyogenes 712; experiment: MIC, broth microdilution, SPY 712; conditions: Streptococcus pyogenes, 712, class symbols, read-out: MIC S PYO 712
Procedure: as §1

[10] = test system: Enterococcus faecium 752 (VRE, Van A); experiment: MIC, broth microdilution, EFcm 752; conditions: VRE, Van A, class symbols, read-out: MIC E FCM 752
Procedure: as §1

[11] = Table 2, in the presence of 0.002% Polysorbate 80
[12] = Table 2, in the presence of 0.002% Polysorbate 80, class symbols

| MIC [1, 11] [µg/mL] | MIC [2, 12] [µg/mL] | MIC (Enterococcus faecium 800; [11]) [µg/mL] | MIC [3, 12] [µg/mL] | MIC [4, 11] [µg/mL] | MIC [5, 12] [µg/mL] | MIC [6, 11] [µg/mL] | MIC [7, 11] [µg/mL] | MIC [8, 11] [µg/mL] | MIC [9, 11] [µg/mL] | MIC [10, 11] [µg/mL] | Structure (SMILES) | also measured |
| --- | --- | --- | --- | --- | --- | --- | --- | --- | --- | --- | --- | --- |
| 0.5 to 1 | 2 to 4 | 0.01 to 0.5 | 0.01 to 0.5 | 0.01 to 0.5 | 0.01 to 0.5 | 4 to 8 | 0.5 to 1 | 0.01 to 0.5 | 0.01 to 0.5 | 1 to 2 | CN[C@H](CC(C)C)C(=O)N[C@H]1C(=O)N[C@@H](CC(=O)NC(=O)c2ccc(OCCOC)cc2)C(=O)N[C@H]2C(=O)N[C@H]3C(=O)N[C@H](C(=O)N[C@H](C(=O)NC4C5CC6CC(C5)CC4C6)c4cc(O)cc(O)c4-c4cc3ccc4O)[C@H](O)c3ccc(c(Cl)c3)Oc3cc2cc(c3O[C@@H]2O[C@H](CO)[C@@H](O)[C@H](O)[C@H]2O[C@H]2C[C@](C)(N)[C@H](O)[C@H](C)O2)Oc2ccc(cc2Cl)[C@H]1O (stereo partly shown) [Compound 65] | – |
| – | – | – | – | – | – | – | – | – | – | – | CN[C@H](CC(C)C)C(=O)N[C@H]1C(=O)N[C@@H](CC(=O)NS(=O)(=O)c2ccc(OCCOC)cc2)C(=O)N[C@H]2C(=O)N[C@H]3C(=O)N[C@H](C(=O)N[C@H](C(=O)NC4C5CC6CC(C5)CC4C6)c4cc(O)cc(O)c4-c4cc3ccc4O)[C@H](O)c3ccc(c(Cl)c3)Oc3cc2cc(c3O[C@@H]2O[C@H](CN)[C@@H](O)[C@H](O)[C@H]2O)Oc2ccc(cc2Cl)[C@H]1O (stereo partly shown) [Compound 101] | MIC ([1]; Table 1): 0.01 to 0.5 µg/mL (≈ 0.00605 to 0.303 µM); MIC ([2]; Table 1, class symbols): 0.01 to 0.5 µg/mL (≈ 0.00605 to 0.303 µM); MIC (Enterococcus faecium 800; Table 1): 0.01 to 0.5 µg/mL (≈ 0.00605 to 0.303 µM); MIC ([3]; Table 1, class symbols): 0.01 to 0.5 µg/mL (≈ 0.00605 to 0.303 µM); MIC ([4]; Table 1): 0.01 to 0.5 µg/mL (≈ 0.00605 to 0.303 µM); MIC ([5]; Table 1, class symbols): 0.01 to 0.5 µg/mL (≈ 0.00605 to 0.303 µM); MIC ([6]; Table 1): 1 to 2 µg/mL (≈ 0.605 to 1.21 µM); MIC ([7]; Table 1): 0.01 to 0.5 µg/mL (≈ 0.00605 to 0.303 µM); MIC ([8]; Table 1): 0.01 to 0.5 µg/mL (≈ 0.00605 to 0.303 µM); MIC ([9]; Table 1): 0.01 to 0.5 µg/mL (≈ 0.00605 to 0.303 µM); MIC ([10]; Table 1): 0.01 to 0.5 µg/mL (≈ 0.00605 to 0.303 µM) |
| 0.01 to 0.5 | 2 to 4 | 0.01 to 0.5 | 0.01 to 0.5 | 0.01 to 0.5 | 0.01 to 0.5 | 4 to 8 | 0.01 to 0.5 | 0.01 to 0.5 | 0.01 to 0.5 | 0.5 to 1 | CN[C@H](CC(C)C)C(=O)N[C@H]1C(=O)N[C@@H](CC(=O)NC(=O)c2ccc(OC)cc2)C(=O)N[C@H]2C(=O)N[C@H]3C(=O)N[C@H](C(=O)N[C@H](C(=O)NC4C5CC6CC(C5)CC4C6)c4cc(O)cc(O)c4-c4cc3ccc4O)[C@H](O)c3ccc(c(Cl)c3)Oc3cc2cc(c3O[C@@H]2O[C@H](CO)[C@@H](O)[C@H](O)[C@H]2O[C@H]2C[C@](C)(N)[C@H](O)[C@H](C)O2)Oc2ccc(cc2Cl)[C@H]1O (stereo partly shown) [Compound 62] | – |
| 0.01 to 0.5 | 1 to 2 | 0.01 to 0.5 | 0.01 to 0.5 | 0.01 to 0.5 | 0.01 to 0.5 | 4 to 8 | 1 to 2 | – | 0.01 to 0.5 | 1 to 2 | CNCCOc1ccc(C(=O)NC(=O)C[C@@H]2NC(=O)[C@H](NC(=O)[C@@H](CC(C)C)NC)[C@H](O)c3ccc(c(Cl)c3)Oc3cc4cc(c3O[C@@H]3O[C@H](CO)[C@@H](O)[C@H](O)[C@H]3O[C@H]3C[C@](C)(N)[C@H](O)[C@H](C)O3)Oc3ccc(cc3Cl)[C@@H](O)[C@@H]3NC(=O)[C@H](NC(=O)[C@@H]4NC2=O)c2ccc(O)c(c2)-c2c(O)cc(O)cc2[C@@H](C(=O)NC2C4CC5CC(C4)CC2C5)NC3=O)cc1 (stereo partly shown) [Compound 67] | – |

— patent publication US20120252741A1, “NOVEL SEMI-SYNTHETIC GLYCOPEPTIDES AS ANTIBACTERIAL AGENTS” (priority 2008, published 2012)
